# Laboratory results as given in patent US20240139211A1, “METHODS AND COMPOSITIONS FOR TREATING AMYOTROPHIC LATERAL SCLEROSIS” (Amylyx Pharmaceuticals, Inc., priority 2022, published 2024).
# Values joined by “and” are separate entries in the source; they are usually repeats but may differ in a detail not shown here. Equal entries are not always repeated.
# How the values were obtained:
# [1] = system: CYPs in human liver microsomes (HLM); assay: CYP reaction phenotyping in HLM with chemical inhibitors (% remaining)
# [2] = Rat drug-drug interaction study TDF + AMX0035: plasma pharmacokinetics; conditions: for Plasma Concentration of analyte at 0.50 hr / Plasma Concentration of analyte at 1.0 hr / Plasma Concentration of analyte at 2.0 hr / Plasma Concentration of analyte at 4.0 hr / Plasma Concentration of analyte at 8.0 hr / Plasma Concentration of analyte at 24 hr / Plasma Concentration of analyte at […] / AUC0-24 / AUClast / Cmax / Tlast / Tmax: male Sprague Dawley rats; for AUC0-24 / AUClast / Cmax / Tlast / Tmax: oral, plasma
# Experimental: This study was comprised of one group of three male CD® (Sprague-Dawley) IGS rats.
# Clinical observations were recorded approximately 1 hour post-dose on Days 1-4 and twice on Day 5, once post-AMX0035 administration and once post-TDF administration. Body weight measurements were recorded prior to randomization and then daily through the end of the study.
# Nominal dose values and nominal sampling times were used for calculations. […] Pharmacokinetic analysis included the determination of Cmax, Tmax, AUClast, Tlast, and AUC0-24.
# [3] = Day 1, TDF only 25 mg/kg oral, individual animals, BLQ = <50 ng/mL
# [4] = Day 1, TDF only 25 mg/kg oral, mean of 3, BLQ set to zero
# [5] = Day 5, AMX0035 + TDF 840/25 mg/kg oral, individual animals, BLQ = <50 ng/mL
# [6] = Day 5, AMX0035 + TDF 840/25 mg/kg oral, mean of 3, BLQ set to zero
# [7] = Day 1, TDF only 25 mg/kg, individual animals
# [8] = Day 1, TDF only 25 mg/kg, mean, N=3
# [9] = Day 5, AMX0035 + TDF 840/25 mg/kg, individual animals
# [10] = Day 5, AMX0035 + TDF 840/25 mg/kg, mean, N=3
substance,measurement,setting,value
tauroursodeoxycholic acid [TUDCA],% remaining of TA in HLM,"[1]; Negative Control-1: −NADPH −inhibitor, pre-incubated, 10 min",129%
same,% remaining of TA in HLM,"[1]; Negative Control-1: −NADPH −inhibitor, pre-incubated, 20 min",119%
same,% remaining of TA in HLM,"[1]; Negative Control-1: −NADPH −inhibitor, pre-incubated, 30 min",130%
same,% remaining of TA in HLM,"[1]; Negative Control-1: −NADPH −inhibitor, pre-incubated, 60 min",132%
same,% remaining of TA in HLM,"[1]; Negative Control-2: −NADPH −inhibitor, 5 min",104%
same,% remaining of TA in HLM,"[1]; Negative Control-2: −NADPH −inhibitor, 10 min",104%
same,% remaining of TA in HLM,"[1]; Negative Control-2: −NADPH −inhibitor, 20 min",105%
same,% remaining of TA in HLM,"[1]; Negative Control-2: −NADPH −inhibitor, 30 min",106%
same,% remaining of TA in HLM,"[1]; Negative Control-2: −NADPH −inhibitor, 60 min",106%
same,Plasma Concentration of analyte at 0.50 hr,[2]; [3],154 ng/mL and 148 ng/mL and 45.4 ng/mL
same,Plasma Concentration of analyte at 1.0 hr,[2]; [3],239 ng/mL and 197 ng/mL and 108 ng/mL
same,Plasma Concentration of analyte at 2.0 hr,[2]; [3],313 ng/mL and 186 ng/mL and 76.8 ng/mL
same,Plasma Concentration of analyte at 4.0 hr,[2]; [3],199 ng/mL and 153 ng/mL and 71.4 ng/mL
same,Plasma Concentration of analyte at 8.0 hr,[2]; [3],338 ng/mL and 211 ng/mL and 68.8 ng/mL
same,Plasma Concentration of analyte at 24 hr,[2]; [3],267 ng/mL and 287 ng/mL and 113 ng/mL
same,Plasma Concentration of analyte at […],[2]; [3],201 ng/mL and 121 ng/mL and 69.3 ng/mL
same,Plasma Concentration of analyte at 0.50 hr,[2]; [4],116 ng/mL
same,Plasma Concentration of analyte at 1.0 hr,[2]; [4],181 ng/mL
same,Plasma Concentration of analyte at 2.0 hr,[2]; [4],192 ng/mL
same,Plasma Concentration of analyte at 4.0 hr,[2]; [4],141 ng/mL
same,Plasma Concentration of analyte at 8.0 hr,[2]; [4],139 ng/mL
same,Plasma Concentration of analyte at 24 hr,[2]; [4],222 ng/mL
same,Plasma Concentration of analyte at […],[2]; [4],130 ng/mL
same,Mean endogenous plasma levels,"[2]; Day 1, no AMX0035, over 24 hours",130 to 222 ng/mL
same,Increase of plasma concentration vs Day 1 at each time point,[2]; Day 5,30-50%
same,Peak (Cmax) plasma value,"[2]; Day 5, AMX0035 840 mg/kg PO",298 ng/mL
same,Plasma Concentration of analyte at 0.50 hr,[2]; [5],96.1 ng/mL and 225 ng/mL and 183 ng/mL
same,Plasma Concentration of analyte at 1.0 hr,[2]; [5],154 ng/mL and 236 ng/mL and 366 ng/mL
same,Plasma Concentration of analyte at 2.0 hr,[2]; [5],126 ng/mL and 200 ng/mL and 505 ng/mL
same,Plasma Concentration of analyte at 4.0 hr,[2]; [5],123 ng/mL and 176 ng/mL and 255 ng/mL
same,Plasma Concentration of analyte at 8.0 hr,[2]; [5],103 ng/mL and 172 ng/mL and 187 ng/mL
same,Plasma Concentration of analyte at 24 hr,[2]; [5],130 ng/mL and 216 ng/mL and 178 ng/mL
same,Plasma Concentration of analyte at […],[2]; [5],84.0 ng/mL and 220 ng/mL and 235 ng/mL
same,Plasma Concentration of analyte at 0.50 hr,[2]; [6],168 ng/mL
same,Plasma Concentration of analyte at 1.0 hr,[2]; [6],252 ng/mL
same,Plasma Concentration of analyte at 2.0 hr,[2]; [6],277 ng/mL
same,Plasma Concentration of analyte at 4.0 hr,[2]; [6],185 ng/mL
same,Plasma Concentration of analyte at 8.0 hr,[2]; [6],154 ng/mL
same,Plasma Concentration of analyte at 24 hr,[2]; [6],175 ng/mL
same,Plasma Concentration of analyte at […],[2]; [6],180 ng/mL
same,AUC0-24,[2]; [7],2040 ng·h/mL and 4870 ng·h/mL and 5380 ng·h/mL
same,AUClast,[2]; [7],2040 ng·h/mL and 4870 ng·h/mL and 5380 ng·h/mL
same,Cmax,[2]; [7],113 ng/mL and 313 ng/mL and 287 ng/mL
same,Tlast,[2]; [7],24 h
same,Tmax,[2]; [7],24 h and 2.0 h
same,AUC0-24,[2]; [8],409 ng·h/mL
same,AUClast,[2]; [8],4090 ng·h/mL
same,Cmax,[2]; [8],238 ng/mL
same,Tlast,[2]; [8],24 h
same,Tmax,[2]; [8],17 h
same,AUC0-24,[2]; [9],2800 ng·h/mL and 4590 ng·h/mL and 5220 ng·h/mL
same,AUClast,[2]; [9],2800 ng·h/mL and 4590 ng·h/mL and 5220 ng·h/mL
same,Cmax,[2]; [9],154 ng/mL and 236 ng/mL and 505 ng/mL
same,Tlast,[2]; [9],24 h
same,Tmax,[2]; [9],1.0 h and 2.0 h
same,AUC0-24,[2]; [10],4200 ng·h/mL
same,AUClast,[2]; [10],4200 ng·h/mL
same,Cmax,[2]; [10],298 ng/mL
same,Tlast,[2]; [10],24 h
same,Tmax,[2]; [10],1.3 h
